pIC50: −log10 of the molar value. The source made the active and inactive calls. No cut-off for these calls is given here.
Experiments:
[1] = Stability in rat plasma assessed as parent compound remaining at 10 uM measured after 60 mins by UPLC-MS/MS analysis; assay type: ADME, cell-free; details: read-out: Stabilty
Mus musculus [2] = experiment: Antialzheimer activity in APP/PS1 double mutant-transgenic C57BL6/J mouse model assessed as reduction in soluble amyloid beta 40 level in cortex at 10 mg/kg/day, ip for 4 weeks followed by compound washout and measured after 24 hrs by ELISA; assay type: functional, organism-based
[3] = Stability in mouse plasma assessed as parent compound remaining at 10 uM measured immediately by UPLC-MS/MS analysis; assay type: ADME, cell-free; details: read-out: Stabilty
[4] = Stability in mouse plasma assessed as parent compound remaining at 10 uM measured after 180 mins by UPLC-MS/MS analysis; assay type: ADME, cell-free; details: read-out: Stabilty
[5] = Drug metabolism in human liver microsomes assessed as N-[8-[(6-chloro-1,2,3,4-tetrahydroacridin-9-yl)amino]octyl]-5-(2,5-dihydroxy-4-methoxy-phenyl)-3-hydroxy-3-methyl-pentanamide formation at 5 uM measured up to 60 mins by UPLC-MS/MS analysis; assay type: ADME, Microsome; details: 1 h
Beta-secretase 1 = Beta-secretase 1 (Homo sapiens, UniProt P56817); experiment: Inhibition human BACE1 expressed in baculovirus expression system at 5 uM using Panvera peptide as substrate measured after 60 mins by fluorescence assay relative to control; details: 1 h
[6] = Intrinsic clearance in rat liver microsomes assessed per mg protein at 5 uM by UPLC-MS/MS analysis; assay type: ADME, Microsome; details: read-out: CLH
[7] = Stability in rat liver microsomes assessed as parent compound remaining at 5 uM measured up to 60 mins by UPLC-MS/MS analysis; assay type: ADME, Microsome; details: read-out: Stabilty
[8] = Acute toxicity in C57BL6/J mouse assessed as reduction in locomotor activity at 15 mg/kg, ip measured after 5 mins; assay type: organism-based; details: in vivo
[9] = Half life in mouse liver microsomes at 5 uM by UPLC-MS/MS analysis; assay type: ADME, Microsome
[10] = Half life in human liver microsomes at 5 uM by UPLC-MS/MS analysis; assay type: ADME, Microsome
[11] = Intrinsic clearance in human liver microsomes assessed per mg protein at 5 uM by UPLC-MS/MS analysis; assay type: ADME, Microsome; details: read-out: CLH
[12] = Drug metabolism in human liver microsomes assessed as 6-chloro-1,2,3,4-tetrahydroacridin-9-amine formation at 5 uM measured up to 60 mins by UPLC-MS/MS analysis; assay type: ADME, Microsome; details: 1 h
Mus musculus [13] = experiment: Antialzheimer activity in APP/PS1 double mutant-transgenic C57BL6/J mouse model assessed as reduction in amyloid beta burden in cortex at 10 mg/kg/day, ip for 4 weeks followed by compound washout and measured after 24 hrs by hematoxylin staining based microscopic analysis; assay type: functional, organism-based
Cholinesterase = Cholinesterase (Homo sapiens, UniProt P06276)
Description: Inhibition of recombinant human BChE using butyrylthiocholine iodide as substrate preincubated for 15 mins followed by substrate addition by Ellman's method

Mus musculus [14] = experiment: Antialzheimer activity in APP/PS1 double mutant-transgenic C57BL6/J mouse model assessed as increase in Hmox1 gene expression at 10 mg/kg/day, ip for 4 weeks followed by compound washout and measured after 24 hrs by qPCR analysis; assay type: functional, organism-based
[15] = Drug metabolism in rat liver microsomes assessed as N-[8-[(6-chloro-1,2,3,4-tetrahydroacridin-9-yl)amino]octyl]-3-hydroxy-5-(4-methoxy-3,6-dioxo-cyclohexa-1,4-dien-1-yl)-3-methyl-pentanamide formation at 5 uM measured up to 60 mins by UPLC-MS/MS analysis; assay type: ADME, Microsome; details: 1 h
[16] = Stability in human plasma assessed as parent compound remaining at 10 uM measured immediately by UPLC-MS/MS analysis; assay type: ADME, cell-free; details: read-out: Stabilty
[17] = Stability in human liver microsomes assessed as parent compound remaining at 5 uM measured up to 60 mins by UPLC-MS/MS analysis; assay type: ADME, Microsome; details: read-out: Stabilty
Mus musculus [18] = experiment: Antialzheimer activity in APP/PS1 double mutant-transgenic C57BL6/J mouse model assessed as reduction in oxidized protein level at 10 mg/kg/day, ip for 4 weeks followed by compound washout and measured after 24 hrs by Western blot analysis; assay type: functional, organism-based

Sequence of Beta-secretase 1 (P56817 whole entry): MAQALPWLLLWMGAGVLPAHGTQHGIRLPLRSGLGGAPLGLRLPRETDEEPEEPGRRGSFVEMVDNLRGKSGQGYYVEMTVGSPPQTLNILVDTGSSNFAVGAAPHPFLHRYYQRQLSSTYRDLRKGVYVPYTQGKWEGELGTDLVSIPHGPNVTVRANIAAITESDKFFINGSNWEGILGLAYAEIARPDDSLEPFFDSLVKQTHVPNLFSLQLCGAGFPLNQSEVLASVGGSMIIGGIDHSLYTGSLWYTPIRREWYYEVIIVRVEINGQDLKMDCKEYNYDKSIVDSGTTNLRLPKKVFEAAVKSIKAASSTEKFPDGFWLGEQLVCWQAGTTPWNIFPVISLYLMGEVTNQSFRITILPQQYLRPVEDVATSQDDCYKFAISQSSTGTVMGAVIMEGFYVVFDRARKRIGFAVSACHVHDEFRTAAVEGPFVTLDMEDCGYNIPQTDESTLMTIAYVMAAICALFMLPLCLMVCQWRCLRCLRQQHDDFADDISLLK
Sequence of Cholinesterase (P06276 whole entry): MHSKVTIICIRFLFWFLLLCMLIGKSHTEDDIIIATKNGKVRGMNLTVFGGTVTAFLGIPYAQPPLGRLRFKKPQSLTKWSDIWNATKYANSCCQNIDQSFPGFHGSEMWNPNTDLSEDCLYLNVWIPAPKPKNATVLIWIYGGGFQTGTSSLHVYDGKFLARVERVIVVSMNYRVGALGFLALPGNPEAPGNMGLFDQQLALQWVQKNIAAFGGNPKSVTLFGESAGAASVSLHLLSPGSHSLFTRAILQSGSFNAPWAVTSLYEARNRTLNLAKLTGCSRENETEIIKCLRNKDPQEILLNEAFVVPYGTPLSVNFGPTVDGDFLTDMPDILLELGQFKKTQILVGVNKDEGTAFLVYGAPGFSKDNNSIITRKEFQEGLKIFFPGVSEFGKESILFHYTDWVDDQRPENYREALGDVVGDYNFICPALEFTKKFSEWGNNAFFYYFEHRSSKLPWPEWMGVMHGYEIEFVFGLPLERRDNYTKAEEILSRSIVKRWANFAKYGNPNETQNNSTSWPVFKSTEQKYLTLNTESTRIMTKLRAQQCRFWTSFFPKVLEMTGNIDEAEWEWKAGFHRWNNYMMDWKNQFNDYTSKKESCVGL

With `COc1cc2c(cc1O)CCC(C)(CC(=O)NCCCCCCCCNc1c3c(nc4cc(Cl)ccc14)CCCC3)O2` (stereo not given) the remaining at 1 h, 10 µM [1] was 100%, the Activity (Mus musculus [2]) was “inactive” and the remaining at 0 min, 10 µM [3] was 100%. The remaining at 3 h, 10 µM [4] was 100%, the Drug metabolism [5] was “Metabolite_Detected” and the inhibition at 5 µM (Beta-secretase 1) was 19%. For the same compound, the microsomal CLint at 5 µM [6] was 16.3 µL/min/mg, the remaining at 1 h, 5 µM [7] was 36.5% and the Activity [8] was “Toxic”. For the same compound, the half-life at 5 µM [9] was 50.5 min, the half-life at 5 µM [10] was 12.6 min and the microsomal CLint at 5 µM [11] was 55.2 µL/min/mg. For the same compound, the Drug metabolism [12] was “Metabolite_Detected”, the Activity (Mus musculus [13]) was “inactive” and the pIC50 (Cholinesterase) was 6.77. For the same compound, the Activity (Mus musculus [14]) was “Active”, the Drug metabolism [15] was “Metabolite_Detected” and the remaining at 0 min, 10 µM [16] was 100%. The remaining at 1 h, 5 µM [17] was 3.6% and the Activity (Mus musculus [18]) was “inactive”.

— ChEMBL document CHEMBL4725294, “Centrally Active Multitarget Anti-Alzheimer Agents Derived from the Antioxidant Lead CR-6” (J Med Chem, 2020)
